# In patent US7671039B2 (Glucan Corporation, priority 2004, dated 2010):
# Marks after values point to notes of the source that are not given here.
# What was measured:
# [1] = FOSA group: Fosamax 10 mg/kg oral; I: body weight after sacrifice − after administration
# Experimental: 25 ddY female mice (age of 6 weeks, SLC, Japan) are used after adaptation during 7 days. The above animals are grouped each 5 and bred in a cage made of polycarbonate under the condition of temperature of 20˜25° C. and humidity of 30˜35%. A cycle of light and darkness is controlled to 12 hours: 12 hours. Feed stuff (Samyang Co., Korea) and water is fed freely. For 20 mice, the both ovary is taken out (ovary extraction : disclosing the both ovary, and then removing all of the both ovary, and then suturing with the same method), and for 5 mice, only sham surgical operation is carried out (sham surgical operation disclosing the both ovary by cutting (3 cm) a skin and an abdominal muscle, and then closing using a skin suturing technique). For the purpose of therapeutic research, a treatment is started after 4 weeks of the ovary extraction, each sample is administrated during 4 weeks.
# All sample is stored at a refrigerate (−10° C.) to prevent from a moisture and light. […]
# Change of body weight and increasing part is calculated after immediately surgical operation, after 4 weeks of surgical operation, after administration, and each week one times during experiment period. […] Also, an increasing part of body weight during adapting period (Increasing part I) and administrating period (Increasing part II) is calculated as followings. […]
# [2] = test system: ddY female mice with ovary extraction; assay: Histological indices of trabecular and cortical bone of thigh in ovary-extracted mice; format: in vivo; conditions: FOSA group: Fosamax 10 mg/kg oral, 4 weeks
# Excerpt: (§1) For histological analysis of experimental animals, the left thigh of each mouse is separated to fix in 10% neutral buffer formalin (NBF) solution, and then delimed during 5 days at delime solution [24.4% formic acid, […]] (the mixed delime solution is exchanged each day one times during 3 days). And then it is fixed to paraffin and then made fraction ([…]) and dyed with hematoxylineosin.
# Body weight, weight of both thigh, histological change including trabecular bone volume (TBV) % and Cortical bone thickness (Cbt) is analyzed. Also, histomorphometric changes of the trochoid bone of left thigh are observed. All experimental result of followings are shown with means±standard deviation. A statistical analysis is carried out by using SPSS For Windows (Release 6.1.3., SPSS Inc, USA) and Mann-Whitney U-Wilcoxon Rank Sum W test(M-W test).
# TBV is calculated by using a Auto Image analysis (analySIS Image Processing; SIS, Germany) under 100 magnifications on a microscope (Zeiss, Germany) for regular size of trabecular bone at the trochoid bone of […] (excluding a growth plate). TBV is calculated with (%) unit.
# A trabecular bone thickness (Tbt), a number of trabecular bone (Tbn), and a trabecular bone length (Tbl) are calculated by using a Auto Image analysis (analySIS Image Processing; SIS, Germany) under 100 magnifications on a microscope (Zeiss, Germany) for regular size at the trochoid bone of left thigh (excluding a growth plate). Tbt and Tbl are calculated with μm unit, and Tbn is calculated with a number of trabecular bone/all section of the trochoid bone section. Tbt and Tbl is calculated at trabecular bone that is most developed in a regular size of the trochoid bone section.
# Cbt is measured at the trochlea neck of thigh and calculated by using a Auto Image analysis (analySIS Image Processing; SIS, Genmany) under 200 magnifications on a microscope (Zeiss, Germany) at prepared histological sample.
# [3] = test system: ddY female mice with ovary extraction; assay: Histomorphometric changes of left thigh, Hematoxylin-Eosin dyeing; format: in vivo
# Experimental: as §1
# A histomorphometric change of left thigh is analyzed by dyeing with Hematoxylin-Eosin.
# [4] = test system: ddY female mice with ovary extraction; assay: Weight of bone of both thighs in ovary-extracted mice; format: in vivo; conditions: wet weight, FOSA group: Fosamax 10 mg/kg oral, 4 weeks
# Experimental: After sacrifice, a weight of bone of both thighs is calculated with g unit. To reduce an error arising from a difference of individual body weight, a weight of bone is calculated with relative weight as following equation. Weight of bone=[(absolute weight of bone/body weight at sacrifice)×100]
smiles,measurement,setting,value
"NCCCC(O)(P(=O)(O)O)P(=O)(O)O [FOSA, sodium alendronate]",Increasing part II of body weight,[1],3.26 ± 2.73
same,Tbn number of trabecular bone,[2]; control 3.40 ± 1.14,15.20 ± 2.77
same,Tbt(μm) trabecular bone thickness,[2]; control 66.40 ± 11.70,93.60 ± 9.56 μm
same,Cbt(μm) Cortical bone thickness,[2]; control 99.20 ± 20.46,102.50 ± 22.29 μm
same,Tbl(μm) trabecular bone length,[2]; control 524.40 ± 176.78,"759.40 ± 89.17*^,## μm"
same,TBV (%) trabecular bone volume,"[2]; n = 5, control 20.23 ± 1.72, sham 47.31 ± 5.95",35.13 ± 4.28%
same,histomorphometric changes of trabecular bone of left thigh (FIG. 3),"[3]; Fosamax and beta-glucan groups compared with control group, width or number lower than sham group",many an extended trabecular bone
same,histomorphometric changes of cortical bone of left thigh (FIG. 4),"[3]; Fosamax group, 10 mg/kg oral, 4 weeks",Some increased or similar width and histomorphometric property comparing with control group
same,Absolute weight of bone,[4],0.075 ± 0.006 g
